“Also recorded” adds a separate entry of the source.

Assay [1] deals with AMPK containing β1 wild-type (WT) subunit. The assay can be described thus: pACC HTRF assay in AMPKβ1/β2 double knockout U-2 OS cells stably expressing β1 WT. Format: cell-based, human. The note with it: varying concentrations, 30 mins at 37 C, FIG. 2. The method, then: (§1) The β1 WT or β1 S108A mutant were stably expressed in […] double knockout cells and were treated with varying concentrations of Compound 1 for 30 mins at 37 C. Phosphorylation of ACC was assessed using the HTRF Cisbio (pACC kit).
(§2) AMPKβ1/β2 double knockout U-2 OS Flp-In™ T-Rex™ cell lines were generated by Horizon Discovery (Cambridge, UK). Cells were genotyped and analysed by Western blotting to confirm that there was a complete knockout of AMPKβ1/β2. We took these AMPKβ1/β2 double knockout cells, and re-introduced the expression of human β1 wild-type (WT) or a (31 Serine 108 to alanine mutation (S108A). This was achieved using the Flp-In™ system (Invitrogen) present in this cell line and stable cells expressing β1 WT or a β1 S108A mutant were generated according to the manufacturers' protocols. Re-expression of the β1 subunit was confirmed by Western blot analysis.
(§3) Cells stably expressing β1 WT or a β1 S108A mutant were treated with varying concentrations of Compound 1. Cells lysates were subjected to the pACC HTRF (Cisbio) assay to determine the level of phosphorylation of the AMPK substrate, ACC, in cell lysates, as in example 1.
(Time-resolved FRET reads energy transfer from a long-lived donor to a nearby acceptor.)

Assay [2] relates to AMPK containing β1 S108A (ADaM site) mutant subunit. The assay can be described thus: pACC HTRF assay in AMPKβ1/β2 double knockout U-2 OS cells stably expressing β1 S108A mutant. Format: cell-based, human. The note with it: varying concentrations, 30 mins at 37 C, FIG. 2. The method, then: as §1, §2, §3
The test system of another assay is AMPK. The assay can be described thus: pACC HTRF assay (Cisbio) in U-2 OS Flp-In T-REx cells. Format: cell-based. The note with it: varying concentrations, 30 mins at 37 C, FIG. 1. The method, then:
Compound 1 increased the phosphorylation of the AMPK substrate, acetyl-CoA carboxylase (ACC), in U-2 OS Flp-In T-REx mammalian cells. U-2 OS cells were treated with varying concentrations of Compound 1 for 30 mins at 37 C. Phosphorylation of ACC was assessed using the HTRF Cisbio (pACC kit). […] U-2 OS Flp-In T-REx cells were seeded at 50 K in a 96-well plate and left overnight at 37 C in DMEM GlutaMAX (Thermo Fisher Scientific) supplemented with 10% (vol/vol) FBS and 100 U/ml penicillin G, and 100 μg/ml streptomycin. Cells were treated for 30 mins with varying concentrations of Compound 1 in media lacking FBS and then cells were lysed in 50 μl of Cisbio lysis buffer #1 supplemented with blocking solution as per the manufacturer's protocol (Cisbio). Cells were lysed for 30 mins at room temperature before 16 μl of lysate was incubated with 4 μl of the HTRF antibodies (1:40 dilution of the acceptor and donor (p)ACC antibodies, as per the manufacturers protocol). Lysates were incubated overnight with the antibodies before the 665 nm/620 nm ratio was determined using a MolecularDevices i3 plate reader (with a HTRF cartridge add-on). […] Phosphorylation of ACC is extensively used as a cellular read-out of AMPK activity.

Take `C=C(C)[C@@H]1CCC(C)=C[C@H]1c1c(O)cc(CCCCC)cc1O` [Compound 1, 2-[(1R,6R)-3-Methyl-6-(1-methylethenyl)-2-cyclohexen-1-yl]-5-pentyl-1,3-benzenediol]: the “phosphorylation of ACC (pACC), fold increase in activation” value in assay [1] is on record as “able to dose-dependently increase pACC”. The “phosphorylation of ACC (pACC) / AMPK activation, fold increase in activation” value in assay [2] was “did not activate AMPK; also recorded: not able to increase the activity of AMPK”. In the assay on AMPK, the “phosphorylation of the AMPK substrate ACC (HTRF ratio 665/620 nm)” value is recorded as “increased the phosphorylation of the AMPK substrate, ACC, in a dose-dependent manner”.
